This assay concerns NIH3T3-L1 adipocytes. As to the kind of experiment: Triglyceride content (Nile Red) of NIH3T3-L1 cells differentiated to adipocytes. Type of assay: cell-based. The note with it: 7 days. The method, then: NIH 3T3-L1 cells were maintained in growth media consisting of Dulbecco's modified Eagle's medium (DMEM) supplemented with 10% calf bovine serum (CBS), 50 U/ml penicillin G and 50 μg/ml streptomycin sulfate. To induce NIH 3T3-L1 differentiation into adipocytes, confluent cells were transferred from their growth media to DMEM containing 10% fetal bovine serum (FBS), 5 μg/ml insulin, 0.5 mM 3-isobutyl-1-methylxanthine (IBMX) and 1 μM dexamethasone for 7 days. During the differentiation period, cells also optionally received 200 nM T0901317, 7.5 μM Clotrimazole or both.
NIH3T3-L1 cells were allowed to differentiate for 7 days in the presence of a well-established differentiation cocktail containing dexamethazole (1 μm), IBMX (0.5 mM) and insulin (5 μg/ml) in the absence or presence of T0901317 (200 nM) or Clotrimazole (7.5 μm). The cells then were fixed and stained with Nile Red, which stains triglycerides (TG) green, and DAPI to visualize nuclei (in blue). TG content of the cell reflected increased or decreased lipogenesis.

Each structure is given as a SMILES string.

Take `Clc1ccccc1C(c1ccccc1)(c1ccccc1)n1ccnc1` [Clotrimazole]: the “TG content compared to treatment with T0901317 alone” value (Clotrimazole 7.5 μm plus T0901317 200 nM) is on record as “reduction in TG content”. For the same compound, the “TG content compared to differentiation cocktail only” value (T0901317 200 nM or Clotrimazole 7.5 μm) is “decreased”.
